Measured values from ChEMBL document CHEMBL3507680, “University of Dundee, Gates Library screen for HepG2 cell viability”.

assay: Human HepG2 cell viability assay in 384 well format; assay type: toxicity, cell-based; set-up: dose 125 nL, time 70.5 hour; cytotoxicity at 70.5 h: concentration not given beside the values; settings: HepG2 cells, read-out: Inhibition

Row | Compound | cytotoxicity at 70.5 h [%]
1 | CC(C)c1ccccc1OCCNC(=O)N1CCC(CC(N)=O)CC1 | -4.04
2 | CC(=O)Nc1nc(C(=O)NC(C)c2ccc(C#N)cc2)cs1 (configuration not stated) | -7.27
3 | O=C(CCN1CCCCCC1c1ccco1)N1CCOCC1 (configuration not stated) | -9.92
4 | COCC(=O)N1CCC2(CC1)C(=O)N(Cc1cccnc1)CCN2C | 28.3
5 | c1cncc(CCc2nc(C3CC3)nn2-c2ccc3c(c2)OCCO3)c1 | 21.8
6 | O=C(CCC1CCCO1)N1CCc2nc(-c3cnccn3)nc(O)c2C1 (configuration not stated) | -3.93
7 | O=C(NCCc1ccc(Cl)s1)N1CCS(=O)(=O)CC1 | -3.08
8 | Cc1c[nH]nc1C1CCN(S(=O)(=O)N(C)C)C1 (configuration not stated) | -8.85
9 | CCOC(C)C(=O)N(C)C1CCN(c2ccc(OC)cc2)CC1 (configuration not stated) | -4.16
10 | CC(C)C[C@H](N)COc1cccc(F)c1Oc1cccc(Cl)c1 | 26.3
11 | O=C(c1cnc(-c2ccco2)s1)N1CCCCC1Cn1cccn1 (configuration not stated) | -9.96
12 | CC1N(c2cnn(C)c2)C(=O)COC12CCN(Cc1ccco1)CC2 (configuration not stated) | -3.36
13 | Cc1nc(-c2ccccc2)n(CC(=O)NC(C)(C)C)n1 | 1.44
14 | Cc1ccsc1CN(Cc1nc2c(cnn2C)c(=O)[nH]1)C(C)C | 2.45
15 | O=C(Nc1ccccc1OC1CCOC1)c1[nH]nc2c1CCCC2 (configuration not stated) | 8.78
16 | CC(C)NC(=O)N1CCOC2(CCCN(c3ncccc3F)C2)C1 (configuration not stated) | -13.6
17 | COc1cc2[nH]c(=O)c(CN3CCCC(CO)C3)cc2c(OC)c1OC (configuration not stated) | -13.1
18 | CCCn1nc2c(cc1=O)CN(Cc1nc(CCOC)no1)CC2 | -3.53
19 | Cn1cc(C(C)(O)CNc2ccc(Cl)c(C#N)n2)cn1 (configuration not stated) | 5.37
20 | Cc1ccc(N2CC[C@H]3CO[C@H](CN(C)Cc4ccco4)[C@H]3C2)nn1 | -0.777
21 | COc1ccc(CCC(=O)N2CCCCC2Cn2cccn2)cc1F (configuration not stated) | -7.2
22 | CC(=O)N1CCCN(C(=O)NCCOc2ccc3c(c2)CCC3)CC1 | -4.61
23 | Cc1nn(C(C)(C)C)c(C)c1C(=O)NCC1(C(N)=O)CCOCC1 | -8.76

Row | Compound | cytotoxicity at 70.5 h [%]
24 | CC1(C)Cc2ccccc2-c2nc(NCCO)[nH]c(=O)c21 | -8.18
25 | O=C(CCOc1ccccc1)N1CCCC(c2ncc[nH]2)C1 (configuration not stated) | -20.2
26 | Cc1ccccc1CCCN(C)S(C)(=O)=O | -3.41
27 | Cc1nc(CN(Cc2ccccc2F)C2CCC2)no1 | -3.66
28 | CN1CC[C@]2(CN(S(C)(=O)=O)C[C@H]2c2ccccc2)C1=O | 3.8
29 | Cc1cccc2c1nc1n2[C@@H](CNC(=O)c2cnccn2)COC1 | 12.8
30 | CCc1ccccc1CN1CC[C@@H](NC(=O)c2cccnc2)[C@H](O)C1 | 1.15
31 | Cc1nn(C)c(C)c1NC(=O)CN1CCOC(CN(C)C)C1 (configuration not stated) | 5.23
32 | COc1cc(S(=O)(=O)N2CCc3cc(Br)ccc32)cc(C(=O)O)c1OC | -0.737
33 | Cc1ccnc(C2CN(c3ccnc(C)n3)C2)n1 | -5.49
34 | CS(=O)(=O)CCC(=O)Nc1ccsc1 | -14.4
35 | O=C(c1ccncc1)N1CCC2(COc3ncccc3S(=O)(=O)N2)C1 (configuration not stated) | -5.87
36 | Nc1nccc(C2CCN(c3cnccn3)C2)n1 (configuration not stated) | 21.1
37 | COc1ccc(OC)c(C2C3=C(COC3=O)Nc3[nH]nc(C)c32)c1 (configuration not stated) | 32
38 | CCc1nc(C)ncc1C(=O)N1CCCC(n2nc(C)nc2C)C1 (configuration not stated) | -12
39 | Cc1nn(C)c2nc(N(Cc3nccs3)C3CC3)sc12 | -15.9
40 | O=C([C@@H]1CC[C@@H]2[C@@H](CCN2c2ncccn2)O1)N1CCCO1 | 11.8
41 | Cc1occc1C(=O)NCC(=O)N1CCCC(c2ccccc2)CC1 (configuration not stated) | -3.67
42 | Cc1cc(C[C@@H]2CCC[C@H]2NCc2ccccc2C)on1 | -1.32
43 | Cc1nc(-c2nc(C(=O)N3CCOCC3)c3ccccn23)cn1C(C)C | -5.18
44 | C[C@]1(O)CCN(Cc2nccs2)C[C@@H]1Oc1cccc(F)c1 | -3.49
45 | CN(C)c1ccc(C(=O)N2CCCC(n3cncn3)C2)nn1 (configuration not stated) | -5.16
46 | O=C(NC1CC1)N1CCC2(CC1)C(=O)NCCN2Cc1ccccc1 | -13.6

Row | Compound | cytotoxicity at 70.5 h [%]
47 | NS(=O)(=O)N1CCC(C(=O)Nc2cccc(OC(F)F)c2)CC1 | 1.39
48 | Cc1csc(CN2C[C@@H]3CN(S(C)(=O)=O)CCO[C@@H]3C2)n1 | 5.33
49 | Cc1ncsc1C(=O)N1CC[C@@H]2[C@@H](CC1)OCCN2c1cccnc1 | -8.57
50 | CCC(c1ccc(F)cc1)N1CCn2c(CO)nnc2C1 (configuration not stated) | -8.02
51 | Cc1cc(NCCCNc2cccnc2)n2nc(C)c(C)c2n1 | -10.7
52 | Cc1ccc(CN2CC[C@@H]3[C@@H](CO[C@H]3CN(C)C)C2)o1 | -5.5
53 | O=C(NCc1cnn2cccnc12)C1CC2(CCNCC2)CN1 (configuration not stated) | -4.05
54 | CC(C)c1sc(Br)nc1C(=O)NCc1ccco1 | 32.2
55 | CN(CC1CCC1)C(=O)Nc1cccnc1-n1cncn1 | -12.4
56 | CC(C)n1ccc(-c2cc(C(=O)N3CCN(C)CC3)c3ccccn23)n1 | -3.84
57 | CCCC(=O)N1CCC([C@@H]2C[C@H](C(F)(F)F)n3nc(C)cc3N2)CC1 | -6.51
58 | CCOCCN1CCN(C(C)c2nc(C3CC3)no2)CC1 (configuration not stated) | 12.1
59 | CSc1ncccc1C(=O)N1CCC2(CC1)c1nc[nH]c1CCN2C | 7.45
60 | Cc1nc2ccc(C(=O)N3CCn4c(nnc4C4CC4)C3)cc2nc1C | -4.74
61 | CC(C)c1nnc2n1CCN(Cc1cc(Cl)c3c(c1)OCO3)C2 | -1.27
62 | CC(=O)N1CC[C@@]2(O)CCCC[C@H]2[C@@H]1c1ccc2c(c1)OCO2 | -1.93
63 | COc1ccc(C2CCCN2c2cnccn2)c(OC)c1 (configuration not stated) | -2.67
64 | CCc1nccn1CCCNc1nccc(-c2c(C)nn(C)c2C)n1 | -16.7
65 | CC1CCCN(c2ccccc2OCC(=O)NC2CCOCC2)C1 (configuration not stated) | 28.3
66 | Cc1nn(-c2ccccc2)cc1C(=O)N1CCCC(n2cccn2)C1 (configuration not stated) | -1.21
67 | COc1ccc([C@@H]2CN(C(=O)CS(C)(=O)=O)C[C@H]2NC(C)=O)cc1 | -2.94
68 | CC(=O)N1CCC2(C1)c1ccccc1S(=O)(=O)N2C (configuration not stated) | -7.77
69 | c1cc(CN2CCO[C@H]3[C@H](OCC4CCCC4)CC[C@@H]32)ccn1 | -5.29

Row | Compound | cytotoxicity at 70.5 h [%]
70 | COc1ccc(OCCNC(=O)N2CCS(=O)(=O)CC2)cc1 | -7.97
71 | CN1CCCN(c2ccc(F)cc2CNC(=O)c2cccnc2)CC1 | 29.2
72 | CC(=O)N1N=C(c2ccco2)OC1C(=O)N(C)CCc1ccccc1 (configuration not stated) | 20.4
73 | CCC(=O)N1CCC(c2nnc(Cn3cccn3)n2C2CC2)CC1 | -6.95
74 | O=C(c1cc(-n2cccn2)ccn1)N1CCOc2ccncc21 | -0.581
75 | COc1cc(CNCC(O)c2ccc(C)cc2)cc2c1OCCO2 (configuration not stated) | 4.82
76 | O=C(NC1CCN(c2cccc(OC(F)(F)F)c2)C1=O)C1CC1 (configuration not stated) | 0.481
77 | COc1ccccc1-c1cccc(C2CCCN(C3CCOCC3)C2)n1 (configuration not stated) | 22.7
78 | O=S(=O)(c1ccccc1)N1CCC2(CCCN2Cc2ccccc2Cl)C1 (configuration not stated) | 22.5
79 | CNC(=O)[C@@H]1C[C@H]2CN(c3ncccn3)C[C@H]2N1C(C)C | -1.97
80 | CCC(Nc1cccc(OC)c1)C(=O)NCc1ccc2[nH]c(=O)[nH]c2c1 (configuration not stated) | -11.6
81 | CC(C)CN1CCC(NC(=O)N(C)Cc2csc3ccccc23)CC1 | -3.08
82 | CC(C)N(C)Cc1cc(=O)n2c(n1)CN(C(=O)c1ccnnc1)CCC2 | -2.81
83 | Cc1cnn(CC2CCCN2C(=O)CCCc2nc(C)no2)c1 (configuration not stated) | 32.9
84 | C[C@@H]1CN(C(=O)c2cc(COc3ccc4c(c3)OCO4)[nH]n2)C[C@H](C)O1 | -3.48
85 | CCC(=O)N1CCC(c2cc(Nc3ncccn3)nc(C)n2)C1 (configuration not stated) | -10.9
86 | CCC(C)N(Cc1ccncc1)Cc1cccc(Cn2cccn2)c1 (configuration not stated) | -6.76
87 | Cc1c(NC(=O)N(C)CCn2cnnc2)cccc1OC1CCCC1 | -4.56
88 | Clc1ccc(OCCNC2(c3ccc(Br)cc3)CCOCC2)cc1 | 9.53
89 | Cc1cc(C(=O)NCc2cnn(C)c2C)nc(N2CCCCCC2)n1 | -3.96
90 | CC(C)N(C)CC(=O)N1CCCC(n2ccnc2)C1 (configuration not stated) | 1.97
91 | O=C(c1cocn1)N1CCC2(CC1)COC(COCc1ccccn1)C2 (configuration not stated) | 0.202
92 | CC1c2ncc(CNC(=O)C3CC3)n2CCN1Cc1cccnc1 (configuration not stated) | -5.38

Row | Compound | cytotoxicity at 70.5 h [%]
93 | NC(=O)CN(Cc1ccc(Br)cc1)C(=O)c1ccncc1 | -2.62
94 | O=C(c1ccnnc1)N1CCn2cc(CN3CCCCC3)nc2C1 | -4.84
95 | Cn1nnnc1SCc1cc2c(cc1Cl)OCO2 | -16
96 | Cc1ccc(N(C)CC(O)COCc2ccccc2)c(C)c1 (configuration not stated) | 12.5
97 | O=C(c1ccccn1)N1CCC(S(=O)(=O)c2ccccc2)C1 (configuration not stated) | -9.33
98 | Cc1ccc(C(=O)NCCCn2cccn2)c(=O)[nH]1 | -0.293
99 | Cc1occc1C(=O)N1CCC2(CCN(C(=O)c3cccnc3)C2)CC1 | 5.51
100 | CC(C)=CCn1ncc(N2CCOCC2)cc1=O | -1.75
101 | Cn1c2ncccc2c(=O)n1CC(=O)Nc1ccc(F)c(F)c1 | -3.2
102 | CC(C)N(CC(N)=O)Cc1csc(COc2ccc(F)cc2)n1 | 43.4
103 | COc1ccc(CCNC(=O)C2CC2)c(Cl)c1 | -1.42
104 | Cc1cc(C)n(CC2CCCN2CC(=O)N(C)CCC#N)n1 (configuration not stated) | -8.11
105 | O=C(NCC(O)c1cccc(F)c1)C1CCN(C(=O)C2CCC2)CC1 (configuration not stated) | -1.02
106 | COC(=O)CCC(=O)N1CCc2nc(C(=O)N(C)C)sc2CC1 | -10.1
107 | Cc1nccnc1N1C[C@H](NC(=O)CNS(C)(=O)=O)[C@@H](C2CC2)C1 | -3.36
108 | CC(C)(C)n1cc(CNc2ccc(CNS(C)(=O)=O)cc2)cn1 | -8.49
109 | Cc1cc(N(C)Cc2ccsc2)n2nc(C)c(C)c2n1 | -10.9
110 | O=c1cc2c(nn1CN1CCC(c3ccccc3)CC1)CCC2 | -17.6
111 | Cc1cncc(C2CCN(C(=O)CCc3ccnn3C)CC2)n1 | 23.6
112 | Cc1[nH]c2ccccc2c1-c1ccnc(NCCN2CCCCC2)n1 | -3.28
